The text below walks through data of PMC7251097, “Aspartate/asparagine-β-hydroxylase: a high-throughput mass spectrometric assay for discovery of small molecule inhibitors” (Scientific Reports, 2020).

The experiment has as its target T1, His6-AspH315–758 (human aspartate/asparagine-β-hydroxylase, AspH) (Homo sapiens, UniProt Q12797).
T1 construct: N-Terminally His6-tagged human AspH315–758 (His6-AspH315–758) was produced in E. coli BL21 (DE3) cells; made in house; host or cells: E. coli BL21 (DE3), pET-28a(+) vector
T1 sequence (Q12797 315-758): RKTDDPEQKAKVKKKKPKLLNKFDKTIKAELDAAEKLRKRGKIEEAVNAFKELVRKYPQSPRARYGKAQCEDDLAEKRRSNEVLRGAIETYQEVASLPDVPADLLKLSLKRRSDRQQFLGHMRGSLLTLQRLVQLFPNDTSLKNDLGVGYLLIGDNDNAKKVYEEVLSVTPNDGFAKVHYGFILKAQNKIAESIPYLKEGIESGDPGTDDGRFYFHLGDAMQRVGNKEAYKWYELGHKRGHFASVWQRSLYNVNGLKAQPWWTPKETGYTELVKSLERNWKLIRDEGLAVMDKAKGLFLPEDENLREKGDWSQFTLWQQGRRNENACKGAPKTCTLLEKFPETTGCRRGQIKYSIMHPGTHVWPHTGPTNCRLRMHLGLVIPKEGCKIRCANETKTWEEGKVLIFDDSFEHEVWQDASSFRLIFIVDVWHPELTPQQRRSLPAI
The experiment in a line: SPE-MS AspH inhibition assay (LOPAC screen at fixed 20 μM and IC50 dose-response), hydroxylation of cyclic peptide hFX-CP101–119. Format: biochemical. The following applies: for Plate 5 (% inhibition) / Plate 5 (% conversion): plate 5 (Pfitzer), test compounds at fixed 20 μM; for Plate 5 (% conversion): mean conversion DMSO 32.88.

Setting [1] is: LOPAC compound at fixed 20 uM, plate 1, normalised to DMSO and 2,4-PDCA controls.
Setting [2] is: LOPAC compound at fixed 20 uM, substrate conversion, plate 1.
The mark [3] stands for this setting: LOPAC Plate 4, compound at 20 uM, substrate conversion.
[4] abbreviates: LOPAC compound at 20uM, conversion of substrate peptide.
[5] abbreviates: LOPAC compound at 20uM, plate 2, conversion of substrate peptide.
The mark [6] stands for this setting: LOPAC compound at 20uM, plate 2, normalised to DMSO and 2,4-PDCA controls.
[7] abbreviates: LOPAC compound at 20uM, plate 2, normalised to DMSO and 2,4-PDCA controls, read-out: Plate 2 (% inhibition).
Where [8] appears, read: 50 nM His6-AspH315–758, 1.0 μM hFX-CP101–119, 3 μM 2OG, 2 μM Fe(II), 50 mM HEPES pH 7.5, 20 °C, mean ± SD, n = 2 (2,4-PDCA n = 10), read-out: IC50.
[9] abbreviates: read-out: Plate 2 (% inhibition).

Structures can show the parent of a compound that is named as a salt. Where two headings read alike, the source gives them in different places.

Turning to `Clc1ccccc1C(c1ccccc1)(c1ccccc1)n1ccnc1` [Clotrimazole], the “Plate 1 (% inhibition)” value under setting [1] is given as -28.43%. In addition, the “Plate 1 (% conversion)” value under setting [2] is given as 45.42%. For the compound `CN1CCN(C2=Nc3cc(Cl)ccc3Nc3ccccc32)CC1` [Clozapine], the “Plate 1 (% conversion)” value turned out to be 39.79%. Also, the “Plate 1 (% inhibition)” value under setting [1] is on record as -11.65%. For `COc1cc2c(c(OC)c1OC)-c1ccc(OC)c(=O)cc1[C@@H](NC(C)=O)CC2` [Colchicine], the “Plate 1 (% conversion)” value was determined as 37.55% and the “Plate 1 (% inhibition)” value is given as -5.00%. As to `C[C@]12CCC(=O)C=C1CC[C@@H]1[C@@H]2CC[C@@]2(C)[C@H]1CC[C@]2(O)C(=O)CO` [Cortexolone], the “% conversion” value under setting [3] came out at 39.11%. `C[C@]12C[C@H](O)[C@H]3[C@@H](CCC4=CC(=O)CC[C@@]43C)[C@@H]1CC[C@@H]2C(=O)CO` [Corticosterone]: under setting [1], the “Plate 1 (% inhibition)” value is -6.36%. The “Plate 1 (% conversion)” value under setting [2] is reported as 38.01%. For `CC(=O)OCC(=O)[C@@]1(O)CC[C@H]2[C@@H]3CCC4=CC(=O)CC[C@]4(C)[C@H]3C(=O)C[C@@]21C` [Cortisone 21-acetate] the same measures were 4.10% and 34.50%.

Regarding `C[C@]12CCC(=O)C=C1CC[C@@H]1[C@@H]2C(=O)C[C@@]2(C)[C@H]1CC[C@]2(O)C(=O)CO` [Cortisone], the “Plate 1 (% inhibition)” value under setting [1] was -8.46%. Also, under setting [2], the “Plate 1 (% conversion)” value came to 38.71%. Turning to `C[C@@H](Oc1cc(-c2cnn(C3CCNCC3)c2)cnc1N)c1c(Cl)ccc(F)c1Cl` [Crizotinib], the “Plate 5 (% inhibition)” value is -31.92% and the “Plate 5 (% conversion)” value amounted to 47.18%. `CN(C)CCC=C1c2ccccc2C=Cc2ccccc21` [Cyclobenzaprine hydrochloride]: under setting [1], the “Plate 1 (% inhibition)” value was -15.86%. Besides, under setting [2], the “Plate 1 (% conversion)” value worked out at 41.20%.

In the case of `O=P1(N(CCCl)CCCl)NCCCO1` (stereo not shown) [Cyclophosphamide monohydrate], the “Plate 1 (% conversion)” value is listed as 38.48% and the “Plate 1 (% inhibition)” value is -7.77%. As to `CN1CCC(=C2c3ccccc3C=Cc3ccccc32)CC1` [Cyproheptadine hydrochloride], the “Plate 1 (% inhibition)” value under setting [1] is on record as -17.18%. Besides, the “Plate 1 (% conversion)” value under setting [2] is given as 41.64%.

As for `CC(=O)O[C@]1(C(C)=O)CC[C@H]2[C@@H]3C=C(Cl)C4=CC(=O)[C@@H]5C[C@@H]5[C@]4(C)[C@H]3CC[C@@]21C` [Cyproterone acetate], the “Plate 1 (% inhibition)” value under setting [1] is -9.70%. Moreover, under setting [2], the “Plate 1 (% conversion)” value is 39.13%. In the case of `NCCSSCCN` [Cystamine dihydrochloride], the “Plate 1 (% inhibition)” value under setting [1] is given as -7.76%. Also, under setting [2], the “Plate 1 (% conversion)” value is 38.48%.

For `Cl.NCCS` [Cysteamine hydrochloride], under setting [4], the “Plate 3 (% conversion)” value is given as 40.01%. Consider `S=C([S-])OC1CC2CC1C1CCCC21.[K+]` [D-609 potassium], for which the “% conversion” value amounted to 29.00%.

`N[C@@H]1CON=C1O` [D-Cycloserine]: the “Plate 1 (% inhibition)” value under setting [1] is listed as -7.97%. Also, the “Plate 1 (% conversion)” value under setting [2] was 38.55%. On to `N[C@H](CO)C(=O)O` [D-Serine], for which the “% conversion” value under setting [3] worked out at 29.64%. As to `OC[C@H]1OC(n2cnc3ccccc32)[C@H](O)[C@@H]1O` (stereo partly drawn) [D-ribofuranosylbenzimidazole], under setting [5], the “Plate 2 (% conversion)” value was 37.89%. Moreover, under setting [6], the “Plate 2 (% inhibition)” value is listed as -5.77%. In the case of `O=C1NC(=O)c2cc(Nc3ccccc3)c(Nc3ccccc3)cc21` [DAPH], the “Plate 1 (% inhibition)” value under setting [1] is on record as -7.17%. Also, the “Plate 1 (% conversion)” value under setting [2] was 38.28%. Turning to `Clc1ccc(N2C[C@H]3CC[C@@H](C2)N3)nn1` [DBO-83], the “Plate 2 (% conversion)” value under setting [5] came to 32.84%. For the same compound, the “Plate 2 (% inhibition)” value under setting [6] is listed as 9.30%.

Take `CCn1c(=O)[nH]c2cc(Cl)c(Cl)cc21` [DCEBIO]: under setting [5], the “Plate 2 (% conversion)” value was 39.27%. Moreover, the “Plate 2 (% inhibition)” value under setting [6] is -9.89%.

With `Fc1cccc(/C=N/N=C/c2cccc(F)c2)c1` [DFB], the “Plate 3 (% conversion)” value under setting [4] turned out to be 35.73%.

`c1ccc(-c2cnn3cc(-c4ccc(OCCN5CCOCC5)cc4)cnc23)cc1` [DMH4]: the “Plate 1 (% inhibition)” value under setting [1] is listed as -35.30%. Further, the “Plate 1 (% conversion)” value under setting [2] was 47.73%. Take `CC(C)[C@@H]1CC[C@@H](C)C[C@@H]1P(=O)(c1ccccc1)c1ccccc1` [DPO-1]: the “Plate 2 (% conversion)” value under setting [5] was 40.63%. Further, under setting [6], the “Plate 2 (% inhibition)” value is -13.96%. For `CN(C)NC(=O)CCC(=O)O` [Daminozide, daminozide, reference compound], the “IC50 [μM]” value (pH 7.5) was “inactive”. Broadly, the inhibition is the drop in the measured response relative to a control, in per cent. For the compound `C#C[C@]1(O)CC[C@H]2[C@@H]3CCC4=Cc5oncc5C[C@]4(C)[C@H]3CC[C@@]21C` [Danazol], the “Plate 2 (% conversion)” value under setting [5] is 39.67%. In addition, the inhibition at 20 µM under setting [7] is -11.1%. Turning to `O=c1ccc2ccc(O)c(O)c2o1` [Daphnetin, reference compound], the inhibition at 20 µM (AspH activity, fixed compound concentration 20 μM, initial LOPAC screen, 0.5%v/v DMSO, read-out: Inhibition at 20 µM [%]) was 98.5%.

As for `C[N+](C)(C)CCCCCCCCCC[N+](C)(C)C.[Br-].[Br-]` [Decamethonium dibromide], the “Plate 2 (% conversion)” value was found to be 41.52%. The “Plate 2 (% inhibition)” value (20 µM) was -16.63%. What is called IC50 is the concentration needed to halve the response being measured. For `O=C(O)c1ccc(-n2nc(-c3ccccc3O)nc2-c2ccccc2O)cc1` [Deferasirox, reference compound], the 50% inhibitory concentration (IC50) under setting [8] amounted to 2.08 ± 0.81 µM.

Regarding `Cc1c(O)c(=O)ccn1C` [Deferiprone, reference compound], the IC50 under setting [8] was 4.89 ± 0.37 µM. The same measure, in the same setting: the value for `CC(=O)N(O)CCCCCNC(=O)CCC(=O)N(O)CCCCCNC(=O)CCC(=O)N(O)CCCCCN` [Deferoxamine mesylate, reference compound] was 3.16 ± 0.93 µM. Take `CC(C)Nc1cccnc1N1CCN(C(=O)c2cc3cc(NS(C)(=O)=O)ccc3[nH]2)CC1` [Delavirdine]: the “Plate 5 (% inhibition)” value was determined as 28.61% and the “Plate 5 (% conversion)” value is recorded as 26.58%. For `O=C(O)CNC(=O)c1c(O)c2ccccc2n(OCC2CC2)c1=O` [Desidustat, desidustat, reference compound], 16.3 ± 0.44 µM corresponded to half-maximal inhibition (IC50 [μM]) (IC50). On to `CNCCCN1c2ccccc2CCc2ccccc21` [Desipramine hydrochloride], for which the “Plate 2 (% conversion)” value under setting [5] is on record as 40.94%. Further, under setting [7], the inhibition at 20 µM was -14.9%. The corresponding values for `O=c1c2ccccc2[nH]c(=S)n1CCN1CCC(=C(c2ccc(F)cc2)c2ccc(F)cc2)CC1` [Diacylglycerol Kinase Inhibitor II] are 21.33% and 43.7%. For `O=C(O)Cc1ccccc1Nc1c(Cl)cccc1Cl` [Diclofenac sodium] the same measures were 32.33% and 10.8%.

One may read the Inhibition as the drop in the measured response relative to a control, in per cent. Take `O=C(O)CN(CCN(CC(=O)O)CC(=O)O)CCN(CC(=O)O)CC(=O)O` [Diethylenetriaminepentaacetic acid, reference compound]: under “AspH activity, fixed compound concentration 20 μM, initial LOPAC screen, 0.5%v/v DMSO”, the “Inhibition at 20 µM [%]” value amounted to 100.3%. Moreover, under setting [5], the “Plate 2 (% conversion)” value is recorded as 2.39%. Moreover, the “Plate 2 (% inhibition)” value under setting [6] came to 100.26%. Take `CN1C[C@H](C(=O)N[C@]2(C)O[C@@]3(O)[C@@H]4CCCN4C(=O)[C@H](Cc4ccccc4)N3C2=O)C[C@@H]2c3cccc4[nH]cc(c34)C[C@H]21` [Dihydroergotamine methanesulfonate]: the “Plate 2 (% conversion)” value came out at 37.10%. For the same compound, the inhibition at 20 µM under setting [9] is -3.42%.

Consider `CC(C)[C@H]1CN[C@H](C(=O)O)[C@H]1CC(=O)O` [Dihydrokainic acid], for which the “Plate 2 (% conversion)” value is 34.38%. Moreover, for the setting “20 µM”, the “Plate 2 (% inhibition)” value turned out to be 4.72%. For `C[C@@H]1O[C@@H](O[C@H]2C[C@@H](O)[C@]3(CO)[C@H]4[C@H](O)C[C@]5(C)[C@@H]([C@@H]6COC(=O)C6)CC[C@]5(O)[C@@H]4CC[C@]3(O)C2)[C@H](O)[C@H](O)[C@H]1O` [Dihydroouabain] the same measures were 38.16% and -6.59%.

`COc1cc(C(=O)OCCCN2CCCN(CCCOC(=O)c3cc(OC)c(OC)c(OC)c3)CC2)cc(OC)c1OC` [Dilazep hydrochloride]: under setting [5], the “Plate 2 (% conversion)” value was determined as 41.49%. Moreover, the inhibition at 20 µM under setting [7] is -16.5%. On to `CN(C)CCOC(c1ccccc1)c1ccccc1` [Diphenhydramine hydrochloride], for which the inhibition at 20 µM under setting [7] is -7.73%.

In the case of `c1ccc2c(c1)[I+]c1ccccc1-2` [Diphenyleneiodonium chloride], the “Plate 2 (% conversion)” value was found to be 35.66%. Also, the inhibition at 20 µM under setting [9] was determined as 0.88%. The corresponding values for `CCCN(CCC)CCc1ccc(O)c(O)c1` [Dipropyldopamine hydrobromide] are 10.27% and 76.7%. Regarding `OCCN(CCO)c1nc(N2CCCCC2)c2nc(N(CCO)CCO)nc(N3CCCCC3)c2n1` [Dipyridamole], the “Plate 2 (% conversion)” value under setting [5] was 42.60%. For the same compound, the inhibition at 20 µM under setting [7] is -19.9%.
